US10172917B2, “Targeted oesophageal administration of ZN-α2-glycoproteins (ZAG), methods and formulations thereof” (ASTON UNIVERSITY, priority 2012, dated 2019)
“Also recorded” adds a separate entry of the source.

Legend:
[1] = tested on: 3T3 L1 adipocytes; details: cited from earlier work
[2] = tested on: ob/ob mice; assay: Oral glucose tolerance test in ob/ob mice after 3 days of oral ZAG; assay type: in vivo, mouse; details: oral ZAG + propanolol 40 mgkg^−1, day 3
Description: Animals were grouped (n=5) to receive either ZAG/PBS (50 μg day^−1), or PBS in their drinking water, the experiment was repeated three times after a power analysis was performed. […] The ZAG was replaced every 48 h. One group of mice receiving ZAG were also administered propanolol (40 mgkg^−1, p.o.) daily. The dose of ZAG was chosen to be the same as that previously administered i.v. (1), so that a direct comparison could be made, between the two routes. Body weight, food and water intake, urinary glucose excretion, and body temperature, determined by the use of a rectal thermometer (RS Components, Northants, UK), were measured daily. A glucose tolerance test was performed on day 3. Animals were fasted for 12 h, followed by oral administration of glucose (1 gkg^−1 in a volume of 100 μl by gavage). Blood samples were removed from the tail vein at 15, 30, 60 and 120 min and used for the measurement of glucose. Urinary glucose was measured by collecting 0.5 ml urine and testing glucose concentration using a Boots glucose monitor. After 8 days of treatment the animals were terminated by cervical dislocation, tissues were removed and rapidly frozen in liquid nitrogen, and maintained at −80° C. […] Animal studies were conducted under Home Office Licence according to the UKCCCR Guidelines for the care and use of laboratory animals.

[3] = tested on: ob/ob mice; assay: Oral ZAG in drinking water to ob/ob mice: body weight, rectal temperature, urinary glucose excretion; assay type: in vivo, mouse
Description: Obese (ob/ob) mice (average weight 65 g) were bred in a colony, and were kept in an air conditioned room at 22+2° C. with ad libitum feeding of a rat and mouse breeding diet (Special Diet Services, Witham, UK) and tap water. […] Animals were grouped (n=5) to receive either ZAG/PBS (50 μg day^−1), or PBS in their drinking water, the experiment was repeated three times after a power analysis was performed. […] The ZAG was replaced every 48 h. […] The dose of ZAG was chosen to be the same as that previously administered i.v. (1), so that a direct comparison could be made, between the two routes. Body weight, food and water intake, urinary glucose excretion, and body temperature, determined by the use of a rectal thermometer (RS Components, Northants, UK), were measured daily. A glucose tolerance test was performed on day 3. Animals were fasted for 12 h, followed by oral administration of glucose (1 gkg^−1 in a volume of 100 μl by gavage). Blood samples were removed from the tail vein at 15, 30, 60 and 120 min and used for the measurement of glucose. Urinary glucose was measured by collecting 0.5 ml urine and testing glucose concentration using a Boots glucose monitor. After 8 days of treatment the animals were terminated by cervical dislocation, tissues were removed and rapidly frozen in liquid nitrogen, and maintained at −80° C. Future work would be to repeat this work in diet-induced animals as alternative to a model with gene alteration, although previous studies have shown the ob/ob mouse to be a good indicator of potential human treatments. Animal studies were conducted under Home Office Licence according to the UKCCCR Guidelines for the care and use of laboratory animals.

[4] = tested on: ob/ob mice; assay: Serum metabolite and insulin levels in ob/ob mice after ZAG administration; assay type: in vivo, mouse; details: ob/ob mice, oral ZAG + propanolol
Description: FCS (foetal calf serum) was from Biosera (Sussex, UK), while DMEM (Dulbecco's modified Eagles Medium) was from PAA (Somerset, UK) and Freestyle medium was purchased from Invitrogen (Paisley, UK). Hybond A nitrocellulose membranes and peroxidise—conjugated rabbit anti-mouse antibody were from GE Healthcare (Bucks, UK), while enhanced chemiluminescene (ECL) development kits were purchased from Thermo Scientific (Northumberland, UK). Mouse monoclonal antibodies to full-length human and mouse ZAG were from Santa Cruz Biotechnology (Santa Cruz, Calif. A mouse insulin ELISA kit was purchased from DRG (Marburg, Germany) and glucose measurements in both urine and plasma were made using a Boots (Nottingham, UK) glucose kit. L-[U-^14C] tyrosine (sp.act 16.7 GBqmmol^−1) was purchased from Perkin Elmer Ltd, (Cambridge, UK), while 2-[1-^14C] deoxy-D-glucose (sp.act 1.85 GBqmmol^−1) was from American Radiolabeled Chemicals (Cardiff, UK).
Obese (ob/ob) mice (average weight 65 g) were bred in a colony, and were kept in an air conditioned room at 22+2° C. with ad libitum feeding of a rat and mouse breeding diet (Special Diet Services, Witham, UK) and tap water. […] Animals were grouped (n=5) to receive either ZAG/PBS (50 μg day^−1), or PBS in their drinking water, the experiment was repeated three times after a power analysis was performed. […] The ZAG was replaced every 48 h. One group of mice receiving ZAG were also administered propanolol (40 mgkg^−1, p.o.) daily. The dose of ZAG was chosen to be the same as that previously administered i.v. (1), so that a direct comparison could be made, between the two routes. Body weight, food and water intake, urinary glucose excretion, and body temperature, determined by the use of a rectal thermometer (RS Components, Northants, UK), were measured daily. A glucose tolerance test was performed on day 3. Animals were fasted for 12 h, followed by oral administration of glucose (1 gkg^−1 in a volume of 100 μl by gavage). Blood samples were removed from the tail vein at 15, 30, 60 and 120 min and used for the measurement of glucose. Urinary glucose was measured by collecting 0.5 ml urine and testing glucose concentration using a Boots glucose monitor. After 8 days of treatment the animals were terminated by cervical dislocation, tissues were removed and rapidly frozen in liquid nitrogen, and maintained at −80° C. Future work would be to repeat this work in diet-induced animals as alternative to a model with gene alteration, although previous studies have shown the ob/ob mouse to be a good indicator of potential human treatments. Animal studies were conducted under Home Office Licence according to the UKCCCR Guidelines for the care and use of laboratory animals.

[5] = tested on: white and brown adipocytes; assay: Glucose uptake ex vivo into white and brown adipocytes of treated ob/ob mice; assay type: in vivo, mouse; details: ob/ob mice treated 8 days; absence and presence of insulin (10 nM)
Description: Single cell suspensions of white and brown adipocytes were obtained by incubation of minced epididymal subcutaneous and visceral WAT and BAT for 2 and 2.5 h, respectively, with Krebs-Ringer bicarbonate (KRBB) containing 1.5 mgml^−1 collagenase and 4% BSA under 95% oxygen-5% CO2 at 37° C. Adipocytes were washed twice in 1 ml KRBB, pH7.2, and then incubated for 10 min at room temperature in 0.5 ml KRBB, containing 18.5 MBq 2-[1-^14C] deoxy-D-glucose (2-DG), together with non-radioactive 2-DG, to give a final concentration of 0.1 mM, in the absence or presence of insulin (10 nM). Uptake was terminated by addition of 1 ml ice-cold KRBB without glucose. Adipocytes were washed three times with 1 ml KRBB and lysed by the addition of 0.5 ml 1M NaOH. The uptake of 2-[1-^14C] DG was determined by liquid scintillation counting.

[6] = tested on: murine ZAG; assay: Western blotting of murine ZAG in serum and WAT of ob/ob mice; assay type: in vivo, mouse; details: ob/ob mice, oral ZAG + propanolol 40 mgkg^−1
Description: Tissues were thawed, washed in PBS and lysed in Phosphosafe™ Extraction reagent for 5 min at room temperature, followed by sonication at 4° C. Cytosolic protein (5-20 ug) formed by centrifugation at 18,000 g for 5 min at 4° C., was resolved on 12% SDS PAGE by electrophoresis at 180V for about 1 h. To determine ZAG in serum 30 μl samples containing 20 μg total protein were electrophoresed as above. Protein was transferred to 0.45 μm nitrocellulose membranes, which had been blocked with 5% (w/v) non-fat dried milk (Marvel) in Tris-buffered saline, pH 7.5, at 4° C. overnight. Membranes were washed for 15 min in 0.1% Tween 20 buffered saline prior to adding the primary antibodies. Both primary and secondary antibodies were used at a dilution of 1:1000. Incubation was for 1 h at room temperature, and development was by ECL. Blots were scanned by a densitometer to quantify differences.

[7] = tested on: gastrocnemius muscle; assay: Glucose uptake ex vivo into isolated muscle of treated ob/ob mice; assay type: in vivo, mouse; details: ob/ob mice treated 8 days; presence of insulin
[8] = oral ZAG + propanolol 40 mgkg^−1

SMILES | levels of ZAG mRNA [1] | effect of propanolol on ZAG-induced increase in insulin sensitivity [2] | effect of propanolol on ZAG-reduced peak blood glucose concentration / improvement in glucose disposal in glucose tolerance test [2] | effect of propanolol on weight gain of mice administered PBS ([3]; PBS + propanolol) | effect of propanolol on ZAG-induced weight loss ([3]; oral ZAG 50 μg daily + propanolol 40 mg/kg po daily) | effect of propanolol on ZAG-induced weight loss ([3]; oral ZAG + propanolol 20 mgkg^−1) | effect of propanolol on ZAG induced increase in rectal temperature [3, 8] | effect of propanolol on ZAG induced reduction in urinary excretion of glucose [3, 8] | effect of propanolol on decrease in serum glucose after ZAG administration [4] | effect of propanolol on decrease in serum insulin levels after ZAG administration [4] | effect of propanolol on ZAG-induced glucose uptake into BAT [5] | effect of propanolol on ZAG-induced stimulation of glucose uptake ex vivo into epididymal, subcutaneous and visceral adipocytes [5] | murine ZAG in the serum of animals given ZAG and co-administered propanolol [6] | effect of propanolol on ZAG-induced glucose uptake ex vivo into gastrocnemius muscle [7]
C[C@H](Cc1ccc(OCC(=O)O)cc1)NC[C@H](O)c1cccc(Cl)c1 [BRL37344] | increase | – | – | – | – | – | – | – | – | – | – | – | – | –
CC(C)NC[C@H](O)COc1cccc2ccccc12 (racemic) [propanolol] | – | blocked; also recorded: attenuated | blocked; also recorded: attenuated | no effect | blocked; also recorded: attenuated | did not prevent the weight loss | completely attenuated | completely attenuated | completely attenuated | completely attenuated | attenuated | attenuated | no increase; also recorded: attenuated | attenuated
